Source: patent US9925174B2, “Administration form for the oral application of 3-[(2-{[4-(hexyloxycarbonyl-amino-imino-methyl)-phenylamino]-methyl}-1-methyl-1 H-benzimidazol acid ethyl ester and the salts thereof” (Boehringer Ingelheim International GmbH, priority 2002, dated 2018)

Experiment: Solubility in water as a function of pH
Type: physicochemical

With `CCCCCCOC(=O)NC(=N)c1ccc(NCc2nc3cc(C(=O)N(CCC(=O)OCC)c4ccccn4)ccc3n2C)cc1` [compound of formula I, ethyl 3-[(2-{[4-(hexyloxycarbonylamino-imino-methyl)-phenylamino]-methyl}-1-methyl-1H-benzimidazole-5-carbonyl)-pyridin-2-yl-amino]-propionate] the “solubility in water at low pH levels” value (low pH) was “dissolves relatively well” and the “solubility in water at pH levels above 5” value (pH above 5, definition of the European Pharmacopoeia) was “virtually insoluble”.
